Assays:
Settings in all cases: route oral
Rattus norvegicus [1] = experiment: Effect on spontaneous motor activity in rats after 1 hr at 100 mg/kg given perorally; type: functional
Rattus norvegicus [2] = experiment: percentage decrease in heart rate after 1 hr at a dose of 10 mg/kg administered perorally in rats.; type: functional
Rattus norvegicus [3] = experiment: percentage decrease in heart rate after 24 hr at a dose of 10 mg/kg administered perorally in rats.; type: functional
Rattus norvegicus [4] = experiment: Effect on spontaneous motor activity in rats after 1 hr at 10 mg/kg given perorally; type: functional
Rattus norvegicus [5] = experiment: percentage decrease in heart rate after 24 hr at a dose of 30 mg/kg administered perorally in rats.; type: functional
Rattus norvegicus [6] = experiment: percentage decrease in heart rate after 6 hr at a dose of 3 mg/kg administered perorally in rats.; type: functional
Rattus norvegicus [7] = experiment: Percentage decrease in systolic blood pressure after 4 hr at 30 mg/kg administered perorally in rats; type: functional, Artery
Rattus norvegicus [8] = experiment: percentage decrease in heart rate after 4 hr at a dose of 1 mg/kg administered perorally in rats.; type: functional
Rattus norvegicus [9] = experiment: Effect on spontaneous motor activity in rats after 2 hr at 100 mg/kg given perorally; type: functional
Rattus norvegicus [10] = experiment: Percentage decrease in systolic blood pressure after 24 hr at 1 mg/kg administered perorally in rats; type: functional, Artery
Rattus norvegicus [11] = experiment: percentage decrease in heart rate after 6 hr at a dose of 1 mg/kg administered perorally in rats.; type: functional
Rattus norvegicus [12] = experiment: Percentage decrease in systolic blood pressure after 1 hr at 1 mg/kg administered perorally in rats; type: functional, Artery
Rattus norvegicus [13] = experiment: Effect on spontaneous motor activity in rats after 2 hr at 300 mg/kg given perorally; values less than 25 % are inactive; type: functional
Rattus norvegicus [14] = experiment: Percentage decrease in systolic blood pressure after 4 hr at 1 mg/kg administered perorally in rats; type: functional, Artery
Rattus norvegicus [15] = experiment: Percentage decrease in systolic blood pressure after 6 hr at 3 mg/kg administered perorally in rats; type: functional, Artery
Rattus norvegicus [16] = experiment: Percentage decrease in systolic blood pressure after 4 hr at 3 mg/kg administered perorally in rats; type: functional, Artery
Rattus norvegicus [17] = experiment: Cumulative effect on spontaneous motor activity in rats at 300 mg/kg given perorally; values less than 25 % are inactive; type: functional
Rattus norvegicus [18] = experiment: Percentage decrease in systolic blood pressure after 24 hr at 3 mg/kg administered perorally in rats; type: functional, Artery
Rattus norvegicus [19] = experiment: Cumulative effect on spontaneous motor activity in rats at 100 mg/kg given perorally; type: functional
Rattus norvegicus [20] = experiment: Percentage decrease in systolic blood pressure after 6 hr at 1 mg/kg administered perorally in rats; type: functional, Artery
Rattus norvegicus [21] = experiment: Cumulative effect on spontaneous motor activity in rats at 10 mg/kg given perorally; type: functional
Rattus norvegicus [22] = experiment: Percentage decrease in systolic blood pressure after 1 hr at 3 mg/kg administered perorally in rats; type: functional, Artery
Rattus norvegicus [23] = experiment: Percentage decrease in systolic blood pressure (heart rate) after 24 hr at 30 mg/kg administered perorally in rats; type: functional, Artery
Rattus norvegicus [24] = experiment: Percentage decrease in systolic blood pressure (heart rate) after 1 hr at 10 mg/kg administered perorally in rats; type: functional, Artery
Rattus norvegicus [25] = experiment: Effect on spontaneous motor activity in rats after 1 hr at 300 mg/kg given perorally; values less than 25 % are inactive; type: functional
Rattus norvegicus [26] = experiment: percentage decrease in heart rate after 1 hr at a dose of 3 mg/kg administered perorally in rats.; type: functional
Rattus norvegicus [27] = experiment: Percentage decrease in systolic blood pressure (heart rate) after 6 hr at 10 mg/kg administered perorally in rats; type: functional, Artery
Rattus norvegicus [28] = experiment: percentage decrease in heart rate after 4 hr at a dose of 10 mg/kg administered perorally in rats.; type: functional
Rattus norvegicus [29] = experiment: percentage decrease in heart rate after 6 hr at a dose of 10 mg/kg administered perorally in rats.; type: functional
Rattus norvegicus [30] = experiment: Effect on spontaneous motor activity in rats after 2 hr at 10 mg/kg given perorally; type: functional
Rattus norvegicus [31] = experiment: Effect on spontaneous motor activity in rats after 1 hr at 30 mg/kg given perorally; type: functional
Rattus norvegicus [32] = experiment: percentage decrease in heart rate after 24 hr at a dose of 1 mg/kg administered perorally in rats.; type: functional
Rattus norvegicus [33] = experiment: percentage decrease in heart rate after 24 hr at a dose of 3 mg/kg administered perorally in rats.; type: functional
Rattus norvegicus [34] = experiment: percentage decrease in heart rate after 6 hr at a dose of 30 mg/kg administered perorally in rats.; type: functional
Rattus norvegicus [35] = experiment: Percentage decrease in systolic blood pressure (heart rate) after 6 hr at 30 mg/kg administered perorally in rats; type: functional, Artery
Rattus norvegicus [36] = experiment: Percentage decrease in systolic blood pressure (heart rate) after 4 hr at 10 mg/kg administered perorally in rats; type: functional, Artery
Rattus norvegicus [37] = experiment: percentage decrease in heart rate after 4 hr at a dose of 30 mg/kg administered perorally in rats.; type: functional
Rattus norvegicus [38] = experiment: percentage decrease in heart rate after 4 hr at a dose of 3 mg/kg administered perorally in rats.; type: functional
Rattus norvegicus [39] = experiment: percentage decrease in heart rate after 1 hr at a dose of 1 mg/kg administered perorally in rats.; type: functional
Rattus norvegicus [40] = experiment: Effect on spontaneous motor activity in rats after 2 hr at 30 mg/kg given perorally; values less than 25 % are inactive; type: functional
Rattus norvegicus [41] = experiment: Percentage decrease in systolic blood pressure after 24 hr at 10 mg/kg administered perorally in rats; type: functional, Artery
Rattus norvegicus [42] = experiment: Cumulative effect on spontaneous motor activity in rats at 30 mg/kg given perorally; type: functional
Rattus norvegicus [43] = experiment: Percentage decrease in systolic blood pressure after 4 hr at 100 mg/kg administered perorally in rats; type: functional, Artery
Rattus norvegicus [44] = experiment: percentage decrease in heart rate after 4 hr at a dose of 100 mg/kg administered perorally in rats; type: functional
Rattus norvegicus [45] = experiment: Percentage decrease in systolic blood pressure after 4 hr at 10 mg/kg administered perorally in rats; type: functional, Artery
Rattus norvegicus [46] = experiment: Percentage decrease in systolic blood pressure after 24 hr at 30 mg/kg administered perorally in rats; type: functional, Artery
Rattus norvegicus [47] = experiment: percentage decrease in heart rate after 24 hr at a dose of 30 mg/kg administered perorally in rats; type: functional
Rattus norvegicus [48] = experiment: Percentage decrease in systolic blood pressure after 6 hr at 10 mg/kg administered perorally in rats; type: functional, Artery
Rattus norvegicus [49] = experiment: percentage decrease in heart rate after 24 hr at a dose of 10 mg/kg administered perorally in rats; type: functional
Rattus norvegicus [50] = experiment: percentage decrease in heart rate after 6 hr at a dose of 3 mg/kg administered perorally in rats; type: functional
Rattus norvegicus [51] = experiment: percentage decrease in heart rate after 4 hr at a dose of 10 mg/kg administered perorally in rats; type: functional
Rattus norvegicus [52] = experiment: percentage decrease in heart rate after 1 hr at a dose of 3 mg/kg administered perorally in rats; type: functional
Rattus norvegicus [53] = experiment: percentage decrease in heart rate after 4 hr at a dose of 30 mg/kg administered perorally in rats; type: functional
Rattus norvegicus [54] = experiment: percentage decrease in heart rate after 6 hr at a dose of 10 mg/kg administered perorally in rats; type: functional
Rattus norvegicus [55] = experiment: Percentage decrease in systolic blood pressure after 6 hr at 30 mg/kg administered perorally in rats; type: functional, Artery
Rattus norvegicus [56] = experiment: Percentage decrease in systolic blood pressure after 1 hr at 10 mg/kg administered perorally in rats; type: functional, Artery
Rattus norvegicus [57] = experiment: percentage decrease in heart rate after 1 hr at a dose of 10 mg/kg administered perorally in rats; type: functional
Rattus norvegicus [58] = experiment: percentage decrease in heart rate after 1 hr at a dose of 30 mg/kg administered perorally in rats; type: functional
Rattus norvegicus [59] = experiment: Percentage decrease in systolic blood pressure after 1 hr at 30 mg/kg administered perorally in rats; type: functional, Artery
Rattus norvegicus [60] = experiment: percentage decrease in heart rate after 6 hr at a dose of 30 mg/kg administered perorally in rats; type: functional
Rattus norvegicus [61] = experiment: percentage decrease in heart rate after 24 hr at a dose of 3 mg/kg administered perorally in rats; type: functional
Rattus norvegicus [62] = experiment: percentage decrease in heart rate after 4 hr at a dose of 3 mg/kg administered perorally in rats; type: functional

`CCCCCC(C)C(C)c1cc(O)c2c(c1)OC(C)(C)C1=C2CN(C(=O)CO)CC1` (centres undefined) gave an Activity (Rattus norvegicus [1]) of 29%, a Heart rate (Rattus norvegicus [2]) of 12% and a Heart rate (Rattus norvegicus [3]) of 11%. The Activity (Rattus norvegicus [4]) was 38%, the Heart rate (Rattus norvegicus [5]) was -1% and the Heart rate (Rattus norvegicus [6]) was -12%. For the same compound, the “Decrease in Systolic blood pressure” value (Rattus norvegicus [7]) was 26%, the Heart rate (Rattus norvegicus [8]) was -18% and the Activity (Rattus norvegicus [9]) was 32%. The “Decrease in Systolic blood pressure” value (Rattus norvegicus [10]) was -5%, the Heart rate (Rattus norvegicus [11]) was -22% and the “Decrease in Systolic blood pressure” value (Rattus norvegicus [12]) was 0%. The Activity (Rattus norvegicus [13]) was -42%, the “Decrease in Systolic blood pressure” value (Rattus norvegicus [14]) was 0% and the “Decrease in Systolic blood pressure” value (Rattus norvegicus [15]) was 3%. The “Decrease in Systolic blood pressure” value (Rattus norvegicus [16]) was 15%, the Activity (Rattus norvegicus [17]) was -45% and the “Decrease in Systolic blood pressure” value (Rattus norvegicus [18]) was 3%. For the same compound, the Activity (Rattus norvegicus [19]) was 30%, the “Decrease in Systolic blood pressure” value (Rattus norvegicus [20]) was -5% and the Activity (Rattus norvegicus [21]) was 50%. For the same compound, the “Decrease in Systolic blood pressure” value (Rattus norvegicus [22]) was 9%, the “Decrease in Systolic blood pressure” value (Rattus norvegicus [23]) was 16% and the “Decrease in Systolic blood pressure” value (Rattus norvegicus [24]) was 20%. The Activity (Rattus norvegicus [25]) was -46%, the Heart rate (Rattus norvegicus [26]) was -3% and the “Decrease in Systolic blood pressure” value (Rattus norvegicus [27]) was 19%. It also gave a Heart rate (Rattus norvegicus [28]) of 25%, a Heart rate (Rattus norvegicus [29]) of 7% and an Activity (Rattus norvegicus [30]) of 116%. It also gave an Activity (Rattus norvegicus [31]) of 67%, a Heart rate (Rattus norvegicus [32]) of -18% and a Heart rate (Rattus norvegicus [33]) of 6%. The Heart rate (Rattus norvegicus [34]) was 6%, the “Decrease in Systolic blood pressure” value (Rattus norvegicus [35]) was 24% and the “Decrease in Systolic blood pressure” value (Rattus norvegicus [36]) was 34%. It also gave a Heart rate (Rattus norvegicus [37]) of 25%, a Heart rate (Rattus norvegicus [38]) of -1% and a Heart rate (Rattus norvegicus [39]) of -18%. For the same compound, the Activity (Rattus norvegicus [40]) was 23%, the “Decrease in Systolic blood pressure” value (Rattus norvegicus [41]) was 4% and the Activity (Rattus norvegicus [42]) was 60%.

`CCCCCC(C)C(C)c1cc(O)c2c(c1)OC(C)(C)C1=C2CN(C(=O)CCCO)CC1` (centres undefined) was tested, and the “Decrease in Systolic blood pressure” value (Rattus norvegicus [43]) was 0% and the Heart rate (Rattus norvegicus [44]) was 19%.

In the case of `C#CCN1CCC2=C(C1)c1c(O)cc(C(C)C(C)CCCCC)cc1OC2(C)C` (centres undefined), the “Decrease in Systolic blood pressure” value (Rattus norvegicus [16]) is reported as 7%, the “Decrease in Systolic blood pressure” value (Rattus norvegicus [18]) is reported as 4% and the “Decrease in Systolic blood pressure” value (Rattus norvegicus [45]) is reported as 23%. For the same compound, the “Decrease in Systolic blood pressure” value (Rattus norvegicus [41]) was 27%.

`CC(CCCc1ccc(F)cc1)c1cc(O)c2c(c1)OC(C)(C)C1=C2CN(C(=O)CCCO)CC1` (centres undefined) was tested, and the “Decrease in Systolic blood pressure” value (Rattus norvegicus [46]) was 22%, the Heart rate (Rattus norvegicus [47]) was 15% and the “Decrease in Systolic blood pressure” value (Rattus norvegicus [48]) was 19%. For the same compound, the “Decrease in Systolic blood pressure” value (Rattus norvegicus [43]) was 32%, the “Decrease in Systolic blood pressure” value (Rattus norvegicus [7]) was 26% and the Heart rate (Rattus norvegicus [49]) was 6%. It also gave a Heart rate (Rattus norvegicus [50]) of 5%, a Heart rate (Rattus norvegicus [51]) of 18% and a Heart rate (Rattus norvegicus [52]) of -17%. For the same compound, the Heart rate (Rattus norvegicus [53]) was 23%, the Heart rate (Rattus norvegicus [54]) was 16% and the “Decrease in Systolic blood pressure” value (Rattus norvegicus [15]) was 9%. For the same compound, the “Decrease in Systolic blood pressure” value (Rattus norvegicus [55]) was 12%, the “Decrease in Systolic blood pressure” value (Rattus norvegicus [56]) was 11% and the “Decrease in Systolic blood pressure” value (Rattus norvegicus [16]) was 5%. For the same compound, the “Decrease in Systolic blood pressure” value (Rattus norvegicus [18]) was -8%, the Heart rate (Rattus norvegicus [57]) was 3% and the Heart rate (Rattus norvegicus [58]) was 2%. The “Decrease in Systolic blood pressure” value (Rattus norvegicus [22]) was -6%, the “Decrease in Systolic blood pressure” value (Rattus norvegicus [59]) was 11% and the Heart rate (Rattus norvegicus [60]) was 9%. For the same compound, the Heart rate (Rattus norvegicus [61]) was -24%, the “Decrease in Systolic blood pressure” value (Rattus norvegicus [45]) was 28% and the “Decrease in Systolic blood pressure” value (Rattus norvegicus [41]) was 17%. It also gave a Heart rate (Rattus norvegicus [44]) of 20% and a Heart rate (Rattus norvegicus [62]) of 0%.

Source: ChEMBL document CHEMBL1122324, “New antihypertensive cannabinoids” (1983)
